Source: ChEMBL document CHEMBL3600349 (Bioorg Med Chem Lett, 2015)
Values belong to the molecule of their own block, whether it stands above or below them.

What was measured:
[1] = Lipophilicity, log P of the compound by HPLC analysis; assay type: physicochemical
[2] = Half life in rat liver microsomes; assay type: ADME
[3] = Intrinsic clearance in human hepatocytes assessed per 10^6 cells; assay type: ADME, cell-based, Hepatocyte; details: read-out: CLH
[4] = target: T1, Melanin-concentrating hormone receptor 1 (Homo sapiens, UniProt Q99705); experiment: Displacement of [125I]-MCH from human MCH-R1 expressed in CHO/Galpha16 cells after 60 mins by scintillation counting; assay type: cell-based
T1 sequence (Q99705 whole entry): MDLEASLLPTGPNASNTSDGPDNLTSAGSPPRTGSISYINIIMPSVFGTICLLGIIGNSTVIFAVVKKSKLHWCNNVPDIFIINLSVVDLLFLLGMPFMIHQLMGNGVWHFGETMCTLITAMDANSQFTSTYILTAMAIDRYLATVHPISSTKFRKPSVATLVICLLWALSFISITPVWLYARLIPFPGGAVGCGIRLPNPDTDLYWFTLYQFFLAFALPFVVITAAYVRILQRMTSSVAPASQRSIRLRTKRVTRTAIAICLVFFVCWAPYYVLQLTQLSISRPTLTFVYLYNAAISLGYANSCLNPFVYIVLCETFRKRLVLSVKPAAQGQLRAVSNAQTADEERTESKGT

hERG (KCNH2) = hERG (KCNH2) (Homo sapiens, UniProt Q12809); experiment: Inhibition of human ERG at 10 uM by patch clamp assay
Sequence of hERG (KCNH2) (Q12809 whole entry): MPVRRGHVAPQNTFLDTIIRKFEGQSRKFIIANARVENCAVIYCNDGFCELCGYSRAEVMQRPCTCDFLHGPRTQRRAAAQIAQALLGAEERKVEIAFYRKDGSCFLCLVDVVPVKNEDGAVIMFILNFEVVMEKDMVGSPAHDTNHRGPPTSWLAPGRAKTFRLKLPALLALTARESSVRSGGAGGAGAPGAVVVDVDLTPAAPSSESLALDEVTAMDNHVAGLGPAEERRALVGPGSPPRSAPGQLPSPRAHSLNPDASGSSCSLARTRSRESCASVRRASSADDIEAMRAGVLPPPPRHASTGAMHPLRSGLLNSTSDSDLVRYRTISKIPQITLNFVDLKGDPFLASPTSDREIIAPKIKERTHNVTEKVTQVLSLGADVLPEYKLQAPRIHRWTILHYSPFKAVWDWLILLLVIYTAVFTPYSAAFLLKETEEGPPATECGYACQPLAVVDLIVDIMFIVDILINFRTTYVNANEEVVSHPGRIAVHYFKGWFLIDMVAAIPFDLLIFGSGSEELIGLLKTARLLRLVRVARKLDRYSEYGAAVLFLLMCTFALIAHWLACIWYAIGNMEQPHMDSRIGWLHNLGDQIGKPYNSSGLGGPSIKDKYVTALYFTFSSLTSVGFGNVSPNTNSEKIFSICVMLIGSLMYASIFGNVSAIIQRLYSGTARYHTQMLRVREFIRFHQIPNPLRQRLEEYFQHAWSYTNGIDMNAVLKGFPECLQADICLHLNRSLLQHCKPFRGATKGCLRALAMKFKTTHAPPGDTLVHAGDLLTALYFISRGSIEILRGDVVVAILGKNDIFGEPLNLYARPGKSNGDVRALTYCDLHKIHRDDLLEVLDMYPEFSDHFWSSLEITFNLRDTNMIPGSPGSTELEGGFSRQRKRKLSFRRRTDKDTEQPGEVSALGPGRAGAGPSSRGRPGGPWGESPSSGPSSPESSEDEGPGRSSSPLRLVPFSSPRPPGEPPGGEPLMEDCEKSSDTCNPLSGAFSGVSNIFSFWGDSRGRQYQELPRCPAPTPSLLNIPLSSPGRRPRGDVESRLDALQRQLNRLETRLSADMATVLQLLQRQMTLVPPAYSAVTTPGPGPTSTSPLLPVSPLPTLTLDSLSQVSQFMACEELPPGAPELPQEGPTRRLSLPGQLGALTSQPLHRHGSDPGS

U-937 [5] = experiment: Toxicity in human U937 cells assessed as first effect concentration for phospholipidosis by nile red uptake assay; assay type: cell-based
Cytochrome P450 3A4 = Cytochrome P450 3A4 (Homo sapiens, UniProt P08684); experiment: Inhibition of CYP3A4 (unknown origin); assay type: ADME
[6] = Volume of distribution at steady state in cynomolgus monkey; assay type: ADME, organism-based, Macaca fascicularis; details: in vivo, read-out: Vdss
[7] = Total mean residence time in iv dosed cynomolgus monkey; assay type: ADME, organism-based, Macaca fascicularis; details: in vivo
U-937 [8] = experiment: Cytotoxicity against human U937 cells; assay type: cell-based
[9] = Total mean residence time in iv dosed dog; assay type: ADME, organism-based, Canis lupus familiaris; details: in vivo
[10] = Dissociation constant, pKa of the compound; assay type: physicochemical
Cytochrome P450 2C8 = target: T2, Cytochrome P450 2C8 (Homo sapiens, UniProt P10632); experiment: Inhibition of CYP2C8 (unknown origin); assay type: ADME
T2 sequence (P10632 whole entry): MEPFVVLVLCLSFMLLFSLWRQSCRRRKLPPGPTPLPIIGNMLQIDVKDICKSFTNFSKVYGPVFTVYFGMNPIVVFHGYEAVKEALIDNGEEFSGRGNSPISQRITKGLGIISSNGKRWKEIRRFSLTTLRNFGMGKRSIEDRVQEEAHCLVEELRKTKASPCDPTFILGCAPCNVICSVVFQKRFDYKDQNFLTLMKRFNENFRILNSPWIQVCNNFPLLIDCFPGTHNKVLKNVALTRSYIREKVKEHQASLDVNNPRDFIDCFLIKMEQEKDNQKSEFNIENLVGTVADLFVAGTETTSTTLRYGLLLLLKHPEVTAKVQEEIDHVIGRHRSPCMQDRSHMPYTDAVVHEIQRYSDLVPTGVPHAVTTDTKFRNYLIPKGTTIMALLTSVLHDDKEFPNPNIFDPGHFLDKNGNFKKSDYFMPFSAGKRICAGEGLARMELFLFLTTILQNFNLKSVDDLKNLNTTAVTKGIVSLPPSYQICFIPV

[11] = target: T3, Nuclear receptor subfamily 1 group I member 2 (Homo sapiens, UniProt O75469); experiment: Activation of PXR (unknown origin) at 10 uM relative to rifampicin; assay type: ADME
T3 sequence (O75469 whole entry): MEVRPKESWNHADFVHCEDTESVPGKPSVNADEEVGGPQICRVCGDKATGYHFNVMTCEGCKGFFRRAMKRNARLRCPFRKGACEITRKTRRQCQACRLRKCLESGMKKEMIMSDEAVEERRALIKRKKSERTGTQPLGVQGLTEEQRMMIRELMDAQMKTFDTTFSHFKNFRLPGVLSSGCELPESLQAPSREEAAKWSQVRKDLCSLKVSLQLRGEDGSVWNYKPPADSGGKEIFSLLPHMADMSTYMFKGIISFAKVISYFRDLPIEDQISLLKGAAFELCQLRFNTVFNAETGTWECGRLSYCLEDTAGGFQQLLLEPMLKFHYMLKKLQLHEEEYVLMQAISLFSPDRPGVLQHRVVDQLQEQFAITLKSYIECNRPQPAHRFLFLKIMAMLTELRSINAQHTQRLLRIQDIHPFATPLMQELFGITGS

[12] = Oral bioavailability in dog; assay type: ADME, organism-based, Canis lupus familiaris; details: in vivo
[13] = target: Melanin-concentrating hormone receptor 1 (Rattus norvegicus, UniProt P97639); experiment: Binding affinity to rat MCH-R1
Sequence of Melanin-concentrating hormone receptor 1 (Rattus norvegicus, UniProt P97639) (P97639 whole entry): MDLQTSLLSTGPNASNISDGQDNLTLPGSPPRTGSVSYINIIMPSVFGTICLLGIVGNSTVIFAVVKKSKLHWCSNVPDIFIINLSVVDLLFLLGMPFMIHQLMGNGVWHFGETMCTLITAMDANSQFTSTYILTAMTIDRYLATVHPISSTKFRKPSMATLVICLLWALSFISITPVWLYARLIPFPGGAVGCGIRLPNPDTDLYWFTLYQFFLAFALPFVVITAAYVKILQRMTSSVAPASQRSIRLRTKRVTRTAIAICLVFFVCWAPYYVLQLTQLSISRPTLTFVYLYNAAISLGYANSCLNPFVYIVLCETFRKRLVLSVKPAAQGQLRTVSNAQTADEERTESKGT

[14] = Apparent permeability from apical to basolateral side in human Caco2 cells at 10 uM; assay type: ADME, cell-based; details: Caco-2
[15] = Plasma protein binding in human; assay type: ADME, cell-free; details: read-out: PPB (converted)
Rattus norvegicus [16] = experiment: Toxicity in diet-induced obese Wistar rat model at 6 to 10 mg/kg, po bid after 4 weeks; assay type: organism-based; details: in vivo, 672 h
[17] = Binding affinity to dog MCH-R1; set-up: species or system Canis lupus familiaris
[18] = Volume of distribution at steady state in dog; assay type: ADME, organism-based, Canis lupus familiaris; details: in vivo, read-out: Vdss
[19] = Plasma protein binding in cynomolgus monkey; assay type: ADME, cell-free, Macaca fascicularis; details: read-out: PPB (converted)
[20] = target: T1, Melanin-concentrating hormone receptor 1; experiment: Binding affinity to human MCH-R1 expressed in CHO/Galpha16 cells; assay type: cell-based
Cynomolgus monkey [21] = experiment: Clearance in cynomolgus monkey relative to hepatic blood flow; assay type: ADME, organism-based, Macaca fascicularis, Liver; details: in vivo
[22] = Metabolic stability in rat hepatocytes relative to hepatic blood flow; assay type: ADME, cell-based, Hepatocyte; details: read-out: Stability
[23] = Volume of distribution at steady state in rat; assay type: ADME, organism-based; details: in vivo, read-out: Vdss
Salmonella typhimurium = experiment: Genotoxicity in Salmonella typhimurium by Ames test; assay type: toxicity, organism-based; details: salmonella enterica subsp. enterica serovar typhimurium
Cynomolgus monkey [24] = experiment: Cardiotoxicity in conscious cynomolgus monkey assessed as decrease in heart rate at 30 mg/kg, po; assay type: toxicity, organism-based, Macaca fascicularis; details: in vivo
Cynomolgus monkey [25] = experiment: Cardiotoxicity in conscious cynomolgus monkey assessed as left ventricular pressure at 3 to 30 mg/kg, po; assay type: toxicity, organism-based, Macaca fascicularis, Heart left ventricle; details: in vivo
U-937 [26] = experiment: Toxicity in human U937 cells assessed as phospholipidosis at 100 uM by nile red uptake assay; assay type: cell-based; details: u-937, 100 µM
Rattus norvegicus [27] = experiment: Antiobesity activity in diet-induced obese Wistar rat model assessed as reduction of body weight at 3 mg/kg, po bid after 4 weeks; assay type: functional; set-up: scale not given: the % may be the effect or the level left
[28] = target: Voltage-gated inwardly rectifying potassium channel KCNH2 (Homo sapiens, UniProt Q12809); experiment: Inhibition of human ERG by patch clamp assay
Sequence of Voltage-gated inwardly rectifying potassium channel KCNH2 (Q12809 whole entry): as the sequence (Q12809 whole entry) above

Rattus norvegicus [29] = organism: Rattus norvegicus; experiment: Clearance in rat relative to hepatic blood flow; assay type: ADME, organism-based, Liver; details: in vivo
[30] = Aqueous solubility of the compound at pH 7.4; assay type: physicochemical
Cytochrome P450 2C19 = Cytochrome P450 2C19 (Homo sapiens, UniProt P33261); experiment: Inhibition of CYP2C19 (unknown origin); assay type: ADME
Sequence of Cytochrome P450 2C19 (P33261 whole entry): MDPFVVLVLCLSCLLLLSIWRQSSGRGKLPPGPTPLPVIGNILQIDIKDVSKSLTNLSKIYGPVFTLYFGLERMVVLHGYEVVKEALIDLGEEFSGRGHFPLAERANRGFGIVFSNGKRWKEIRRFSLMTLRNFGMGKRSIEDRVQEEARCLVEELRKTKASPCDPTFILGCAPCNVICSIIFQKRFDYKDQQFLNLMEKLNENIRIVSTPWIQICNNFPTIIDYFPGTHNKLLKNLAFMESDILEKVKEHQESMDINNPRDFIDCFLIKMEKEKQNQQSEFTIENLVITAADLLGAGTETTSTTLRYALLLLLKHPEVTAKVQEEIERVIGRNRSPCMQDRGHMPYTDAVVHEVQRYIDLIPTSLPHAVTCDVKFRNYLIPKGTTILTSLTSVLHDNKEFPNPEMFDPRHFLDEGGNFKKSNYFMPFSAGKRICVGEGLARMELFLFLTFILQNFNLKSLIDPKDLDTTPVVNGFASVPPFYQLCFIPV

[31] = Efflux ratio in human Caco2 cells at 10 uM; assay type: ADME, cell-based; details: Caco-2
[32] = target: Histamine H3 receptor (Homo sapiens) (UniProt Q9Y5N1); experiment: Binding affinity to histamine H3 receptor (unknown origin) at 10 uM by radioligand binding assay
Sequence of Histamine H3 receptor (Homo sapiens) (Q9Y5N1 whole entry): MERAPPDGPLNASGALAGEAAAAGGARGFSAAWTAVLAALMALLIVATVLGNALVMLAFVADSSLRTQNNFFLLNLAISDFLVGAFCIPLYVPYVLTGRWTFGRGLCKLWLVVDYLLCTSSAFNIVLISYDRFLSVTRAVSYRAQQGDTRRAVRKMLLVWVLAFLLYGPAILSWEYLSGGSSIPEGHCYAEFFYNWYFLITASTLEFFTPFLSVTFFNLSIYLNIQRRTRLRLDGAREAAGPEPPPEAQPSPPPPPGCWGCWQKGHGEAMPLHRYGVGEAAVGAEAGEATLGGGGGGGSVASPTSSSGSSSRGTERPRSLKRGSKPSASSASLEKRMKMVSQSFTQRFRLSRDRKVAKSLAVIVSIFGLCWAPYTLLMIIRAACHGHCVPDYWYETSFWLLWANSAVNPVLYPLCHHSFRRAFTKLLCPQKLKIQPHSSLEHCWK

[33] = Metabolic stability in cynomolgus monkey hepatocytes relative to hepatic blood flow; assay type: ADME, cell-based, Macaca fascicularis, Hepatocyte; details: read-out: Stability
[34] = Aqueous solubility of the compound at pH 6.8; assay type: physicochemical
[35] = Oral bioavailability in rat; assay type: ADME, organism-based; details: in vivo
Rattus norvegicus [36] = experiment: Antiobesity activity in diet-induced obese Wistar rat model assessed as reduction of body weight at 10 mg/kg, po bid after 4 weeks; assay type: functional; set-up: scale not given: the % may be the effect or the level left
Cytochrome P450 2C9 = Cytochrome P450 2C9 (Homo sapiens, UniProt P11712); experiment: Inhibition of CYP2C9 (unknown origin); assay type: ADME
Sequence of Cytochrome P450 2C9 (P11712 whole entry): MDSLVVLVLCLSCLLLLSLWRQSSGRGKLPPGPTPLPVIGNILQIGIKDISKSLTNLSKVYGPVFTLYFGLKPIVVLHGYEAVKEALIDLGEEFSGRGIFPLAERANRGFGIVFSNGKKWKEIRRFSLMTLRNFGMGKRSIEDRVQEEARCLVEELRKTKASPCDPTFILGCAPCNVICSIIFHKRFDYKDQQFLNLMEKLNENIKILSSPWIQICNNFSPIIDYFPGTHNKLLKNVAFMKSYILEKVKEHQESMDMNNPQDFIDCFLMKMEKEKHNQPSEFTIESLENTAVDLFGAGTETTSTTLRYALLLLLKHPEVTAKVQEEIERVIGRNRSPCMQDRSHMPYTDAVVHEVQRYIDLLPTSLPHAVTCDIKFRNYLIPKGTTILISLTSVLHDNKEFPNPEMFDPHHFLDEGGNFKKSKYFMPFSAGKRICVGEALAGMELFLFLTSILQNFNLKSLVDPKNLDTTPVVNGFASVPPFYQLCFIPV

[37] = Mean residence time in iv dosed cynomolgus monkey; assay type: ADME, organism-based, Macaca fascicularis; details: in vivo
Cynomolgus monkey [38] = experiment: Cardiotoxicity in conscious cynomolgus monkey assessed as myocardial contraction at 3 to 30 mg/kg, po; assay type: toxicity, organism-based, Macaca fascicularis, Myocardium; details: in vivo
[39] = Metabolic stability in human hepatocytes relative to hepatic blood flow; assay type: ADME, cell-based, Hepatocyte; details: read-out: Stability
Rattus norvegicus [40] = experiment: Antiobesity activity in diet-induced obese Wistar rat model assessed as reduction of body weight at 6 mg/kg, po bid after 4 weeks; assay type: functional; set-up: scale not given: the % may be the effect or the level left
Cynomolgus monkey [41] = experiment: Cardiotoxicity in conscious cynomolgus monkey assessed as systolic and diastolic blood pressure at 3 to 30 mg/kg, po; assay type: toxicity, organism-based, Macaca fascicularis; details: in vivo
CYP3A4 = CYP3A4 (Homo sapiens, UniProt P08684); experiment: Time dependent inhibition of CYP3A4 (unknown origin) at 25 uM after 30 mins; assay type: ADME
[42] = Aqueous solubility of the compound at pH 4.5; assay type: physicochemical
[43] = Plasma protein binding in rat; assay type: ADME, cell-free; details: read-out: PPB (converted)
[44] = Plasma protein binding in dog; assay type: ADME, cell-free, Canis lupus familiaris; details: read-out: PPB (converted)
[45] = Aqueous solubility of the compound at pH 2.2; assay type: physicochemical
[46] = Mean residence time in iv dosed rat; assay type: ADME, organism-based; details: in vivo
[47] = Oral bioavailability in cynomolgus monkey; assay type: ADME, organism-based, Macaca fascicularis; details: in vivo
[48] = Distribution coefficient, log D of the compound; assay type: physicochemical; details: octanol/water
Cytochrome P450 2D6 = Cytochrome P450 2D6 (Homo sapiens, UniProt P10635); experiment: Inhibition of CYP2D6 (unknown origin); assay type: ADME
Sequence of Cytochrome P450 2D6 (P10635 whole entry): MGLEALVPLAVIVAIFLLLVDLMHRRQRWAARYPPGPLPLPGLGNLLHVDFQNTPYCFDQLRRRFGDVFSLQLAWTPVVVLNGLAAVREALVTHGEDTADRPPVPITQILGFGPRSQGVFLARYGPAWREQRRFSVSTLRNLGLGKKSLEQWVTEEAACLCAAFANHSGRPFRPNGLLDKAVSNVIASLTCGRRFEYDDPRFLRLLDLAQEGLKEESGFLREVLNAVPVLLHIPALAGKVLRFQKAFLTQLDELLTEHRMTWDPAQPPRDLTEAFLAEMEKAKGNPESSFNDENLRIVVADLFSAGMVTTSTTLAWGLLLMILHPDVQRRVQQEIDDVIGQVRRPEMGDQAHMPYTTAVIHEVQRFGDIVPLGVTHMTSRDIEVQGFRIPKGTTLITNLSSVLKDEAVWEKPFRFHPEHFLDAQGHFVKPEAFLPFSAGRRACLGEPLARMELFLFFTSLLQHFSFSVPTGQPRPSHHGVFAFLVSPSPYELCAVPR

[49] = Total mean residence time in iv dosed rat; assay type: ADME, organism-based; details: in vivo
Canis familiaris = organism: Canis familiaris; experiment: Clearance in dog relative to hepatic blood flow; assay type: ADME, organism-based, Canis lupus familiaris, Liver; details: in vivo
[50] = Mean residence time in iv dosed dog; assay type: ADME, organism-based, Canis lupus familiaris; details: in vivo

logP [1]: 3.6
half-life [2]: 6 min
hepatocyte CLint [3]: 17 µL/min/1e6 cells
IC50 [4]: 0.01 µM
SMILES: CN(C)Cc1ccc(C(=O)Cn2ncc(OCc3ccccc3)cc2=O)cc1

logP [1]: 3.8
half-life [2]: 15 min
hepatocyte CLint [3]: 4.8 µL/min/1e6 cells
IC50 [4]: 0.0087 µM
SMILES: Cc1cc(CN(C)C)ccc1C(=O)Cn1ncc(OCc2ccccc2)cc1=O
inhibition at 10 µM (hERG (KCNH2)): 88%
Activity (U-937 [5]): 50 µM

logP [1]: 2.9
half-life [2]: 14 min
IC50 [4]: 0.025 µM
SMILES: CN(C)Cc1ccc(C(=O)Cn2ncc(OCc3ccc(Cl)cn3)cc2=O)cc1
inhibition at 10 µM (hERG (KCNH2)): 39%
Activity (U-937 [5]): 50 µM

IC50 (Cytochrome P450 3A4): 18 µM
Vd [6]: 1.3 L/kg
MRT [7]: 132 min
MRT [9]: 174 min
pKa [10]: 2.8
logP [1]: 2.3
IC50 (Cytochrome P450 2C8): > 50 µM
Activity [11]: 17%
bioavailability [12]: 1.4%
IC50 [13]: 0.018 µM
Papp A→B at 10 µM [14]: 520 nm/s
fraction unbound [15]: 0.07
IC50 [17]: 0.023 µM
Vd [18]: 2.9 L/kg
fraction unbound [19]: 0.1
Ki [20]: 0.014 µM
CL (Cynomolgus monkey [21]): 40%
hepatic extraction ratio [22]: 0.78
Vd [23]: 3.3 L/kg
CL (Rattus norvegicus [29]): 164%
solubility [30]: > 1 mg/mL
IC50 (Cytochrome P450 2C19): > 50 µM
efflux ratio at 10 µM [31]: 1
Activity [32]: 78%
hepatic extraction ratio [33]: 0.43
solubility [34]: > 1 mg/mL
bioavailability [35]: 53%
IC50 (Cytochrome P450 2C9): > 50 µM
MRT [37]: 72 min
hepatic extraction ratio [39]: 0.26
inhibition at 0.5 h, 25 µM (CYP3A4): 85%
solubility [42]: > 1 mg/mL
half-life [2]: > 45 min
hepatocyte CLint [3]: 3.3 µL/min/1e6 cells
fraction unbound [43]: 0.1
fraction unbound [44]: 0.2
solubility [45]: > 1 mg/mL
MRT [46]: 30 min
bioavailability [47]: 44%
logD [48]: 1.4
IC50 (Cytochrome P450 2D6): > 50 µM
IC50 [4]: 0.022 µM
MRT [49]: 204 min
CL (Canis familiaris): 229%
MRT [50]: 42 min
SMILES: COc1ccc(COc2cnn(CC(=O)c3ccc(CN(C)C)cc3C)c(=O)c2)nc1
IC50 (U-937 [8]): 506 µM
Activity (Rattus norvegicus [16]): Non-toxic
Activity (Salmonella typhimurium): Non-toxic
Activity (Cynomolgus monkey [24]): Non-toxic
Activity (Cynomolgus monkey [25]): Non-toxic
inhibition at 10 µM (hERG (KCNH2)): 17%
Activity (U-937 [26]): Non-toxic
Activity (Rattus norvegicus [27]): 7.7%
IC50 [28]: 16 µM
Activity (Rattus norvegicus [36]): 10.2%
Activity (Cynomolgus monkey [38]): Non-toxic
Activity (Rattus norvegicus [40]): 10.1%
Activity (U-937 [5]): 200 µM
Activity (Cynomolgus monkey [41]): Non-toxic
